Data: US20230365559A1, “NOVEL AMINOPYRIDINES AND THEIR USE IN TREATING CANCER” (priority 2020, published 2023)
Several values for one entry are separate records, joined by “and”; a condition that tells them apart may be missing. Equal entries are not always repeated. Where two headings read alike, the source gives them in different places.

How the values were obtained:
HAP1/PRKDC−/− cells = assay: Radiosensitisation of DNA-PK null HAP1/PRKDC−/− cells, regrowth assay; assay type: cell-based, human
UT-SCC-54C cells [1] = assay: Radiosensitisation of UT-SCC-54C HNSCC cells, clonogenic survival, oxic and anoxic (Table 18); assay type: cell-based, human; conditions: for Plating efficiency drug/no drug: no radiation
UT-SCC-54C cells [2] = assay: Hypoxia-selective metabolism of prodrugs by UT-SCC-54C cells, LC-MS; conditions: 10 μM, 0-3 h
ATR/ATRIP = ATR/ATRIP (Homo sapiens, UniProt Q13535); assay: ATR/ATRIP Human PIKK Kinase Enzymatic Radiometric Assay, KinaseProfiler (Eurofins Discovery); assay type: biochemical; conditions: Km ATP, Table 15, read-out: Inhibition of PIKK kinase activity ATR
human DNA-PK = human DNA-PK (Homo sapiens, UniProt P78527); assay: Inhibition of DNA-PKcs kinase activity, HotSpot assay (Reaction Biology), [γ-33P]-ATP phosphorylation of peptide substrate; assay type: biochemical
ATM = ATM (Homo sapiens, UniProt Q13315); assay: ATM Human PIKK Kinase Enzymatic ELISA/EIA Assay, KinaseProfiler (Eurofins Discovery); assay type: biochemical; conditions: KinaseProfiler, Km ATP; Table 15; read-out: Inhibition of PIKK kinase activity ATM
ATM, sequence (Q13315 whole entry): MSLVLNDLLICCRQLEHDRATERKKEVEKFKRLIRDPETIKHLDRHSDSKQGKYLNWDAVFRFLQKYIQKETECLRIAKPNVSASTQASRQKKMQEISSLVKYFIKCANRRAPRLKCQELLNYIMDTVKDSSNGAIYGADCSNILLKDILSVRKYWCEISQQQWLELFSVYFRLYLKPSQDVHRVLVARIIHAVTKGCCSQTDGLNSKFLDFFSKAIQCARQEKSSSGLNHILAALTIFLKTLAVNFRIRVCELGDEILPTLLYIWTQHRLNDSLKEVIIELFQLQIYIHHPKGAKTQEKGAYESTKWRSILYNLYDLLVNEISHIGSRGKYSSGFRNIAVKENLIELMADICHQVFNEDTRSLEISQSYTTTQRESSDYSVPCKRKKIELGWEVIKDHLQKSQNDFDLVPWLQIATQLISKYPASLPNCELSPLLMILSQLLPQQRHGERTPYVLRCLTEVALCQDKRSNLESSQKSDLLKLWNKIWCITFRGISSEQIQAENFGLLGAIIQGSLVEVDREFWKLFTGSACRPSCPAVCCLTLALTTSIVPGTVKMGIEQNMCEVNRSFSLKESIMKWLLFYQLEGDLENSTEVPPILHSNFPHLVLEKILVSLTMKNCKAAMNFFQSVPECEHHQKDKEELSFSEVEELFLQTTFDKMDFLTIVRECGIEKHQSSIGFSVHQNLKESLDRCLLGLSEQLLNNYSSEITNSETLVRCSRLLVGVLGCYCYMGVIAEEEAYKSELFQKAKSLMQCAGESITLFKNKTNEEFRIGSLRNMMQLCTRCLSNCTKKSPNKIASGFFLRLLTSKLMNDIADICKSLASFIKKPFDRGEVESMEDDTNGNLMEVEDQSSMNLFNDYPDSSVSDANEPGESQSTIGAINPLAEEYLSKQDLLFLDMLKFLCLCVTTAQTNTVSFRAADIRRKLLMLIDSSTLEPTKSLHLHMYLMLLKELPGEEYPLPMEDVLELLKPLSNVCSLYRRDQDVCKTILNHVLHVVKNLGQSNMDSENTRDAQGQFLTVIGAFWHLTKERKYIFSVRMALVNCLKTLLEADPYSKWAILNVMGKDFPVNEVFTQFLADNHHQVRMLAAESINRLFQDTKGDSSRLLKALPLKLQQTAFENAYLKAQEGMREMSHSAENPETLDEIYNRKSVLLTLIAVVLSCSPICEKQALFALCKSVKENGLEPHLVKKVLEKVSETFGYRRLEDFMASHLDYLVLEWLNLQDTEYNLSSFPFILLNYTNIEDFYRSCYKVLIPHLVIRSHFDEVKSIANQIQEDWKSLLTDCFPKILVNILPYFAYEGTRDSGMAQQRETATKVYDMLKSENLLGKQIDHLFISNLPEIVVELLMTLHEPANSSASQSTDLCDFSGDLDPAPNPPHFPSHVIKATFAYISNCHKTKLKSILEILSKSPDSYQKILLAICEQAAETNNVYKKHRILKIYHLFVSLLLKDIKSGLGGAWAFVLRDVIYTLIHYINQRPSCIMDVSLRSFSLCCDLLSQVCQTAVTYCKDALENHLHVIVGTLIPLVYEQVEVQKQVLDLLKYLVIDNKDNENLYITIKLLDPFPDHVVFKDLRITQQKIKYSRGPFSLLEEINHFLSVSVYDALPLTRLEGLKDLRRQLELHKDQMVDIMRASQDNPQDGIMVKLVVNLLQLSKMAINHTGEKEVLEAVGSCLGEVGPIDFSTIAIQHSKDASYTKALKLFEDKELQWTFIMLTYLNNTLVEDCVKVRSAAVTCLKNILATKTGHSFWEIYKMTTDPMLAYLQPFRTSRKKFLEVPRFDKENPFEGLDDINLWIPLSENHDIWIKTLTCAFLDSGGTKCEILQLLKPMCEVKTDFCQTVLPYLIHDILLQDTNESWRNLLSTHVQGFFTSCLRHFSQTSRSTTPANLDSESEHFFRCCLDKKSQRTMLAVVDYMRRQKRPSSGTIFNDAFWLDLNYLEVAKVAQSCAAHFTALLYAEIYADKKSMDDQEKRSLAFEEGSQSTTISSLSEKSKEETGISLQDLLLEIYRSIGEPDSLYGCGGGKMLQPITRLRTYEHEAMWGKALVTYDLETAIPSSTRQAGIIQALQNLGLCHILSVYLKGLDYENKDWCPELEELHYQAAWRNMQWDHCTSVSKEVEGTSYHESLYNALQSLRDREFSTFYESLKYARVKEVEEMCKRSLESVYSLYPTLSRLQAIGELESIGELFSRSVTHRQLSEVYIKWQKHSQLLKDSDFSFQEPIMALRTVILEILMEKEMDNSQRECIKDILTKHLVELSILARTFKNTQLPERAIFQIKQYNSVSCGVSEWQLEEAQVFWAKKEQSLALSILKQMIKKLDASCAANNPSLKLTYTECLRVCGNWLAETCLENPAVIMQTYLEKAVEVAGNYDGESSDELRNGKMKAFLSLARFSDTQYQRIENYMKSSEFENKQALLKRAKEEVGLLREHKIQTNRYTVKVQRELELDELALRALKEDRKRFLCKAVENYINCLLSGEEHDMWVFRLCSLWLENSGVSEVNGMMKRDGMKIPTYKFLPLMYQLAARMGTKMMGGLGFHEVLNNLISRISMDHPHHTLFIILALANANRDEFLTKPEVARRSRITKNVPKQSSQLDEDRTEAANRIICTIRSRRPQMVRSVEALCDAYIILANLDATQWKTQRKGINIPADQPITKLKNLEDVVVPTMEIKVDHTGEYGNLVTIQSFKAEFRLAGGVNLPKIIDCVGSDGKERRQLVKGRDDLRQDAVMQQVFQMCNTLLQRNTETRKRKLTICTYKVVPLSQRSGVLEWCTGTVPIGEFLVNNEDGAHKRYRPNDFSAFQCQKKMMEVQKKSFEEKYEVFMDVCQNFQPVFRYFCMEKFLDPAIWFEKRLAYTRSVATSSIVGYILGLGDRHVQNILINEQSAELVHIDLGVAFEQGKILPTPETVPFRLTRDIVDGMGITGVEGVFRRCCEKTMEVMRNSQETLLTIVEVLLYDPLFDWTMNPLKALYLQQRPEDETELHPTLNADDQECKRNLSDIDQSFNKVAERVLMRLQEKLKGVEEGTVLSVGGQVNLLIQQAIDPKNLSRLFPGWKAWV

[3] = test system: UT-SCC-54C tumour xenografts; assay: Radiosensitisation of UT-SCC-54C HNSCC tumours, ex vivo clonogenic assay of tumour xenografts; assay type: in vivo, female NIH-III mice
HAP1 cells = assay: Radiosensitisation of HAP1 wild type cells, regrowth assay; assay type: cell-based, human
UT-SCC-54C cells [4] = assay: Radiosensitisation of UT-SCC-54C HNSCC cells, regrowth (sulforhodamine B) assay, oxic (Table 16); assay type: cell-based, human
human mTOR = human mTOR (Homo sapiens, UniProt P42345); assay: Inhibition of mTOR kinase activity, HotSpot assay, phosphorylation of 4EPB1
human PI3Kα (p110α/p85α) = human PI3Kα (p110α/p85α) (Homo sapiens, UniProt P42336); assay: Inhibition of PI3Kα kinase activity, ADP-Glo Assay (Reaction Biology); assay type: biochemical; conditions: 10 μM ATP; mean of two replicates; Table 12; read-out: Inhibition of kinase activity (as IC50) PICK
human PI3Kα (p110α/p85α), sequence (P42336 whole entry): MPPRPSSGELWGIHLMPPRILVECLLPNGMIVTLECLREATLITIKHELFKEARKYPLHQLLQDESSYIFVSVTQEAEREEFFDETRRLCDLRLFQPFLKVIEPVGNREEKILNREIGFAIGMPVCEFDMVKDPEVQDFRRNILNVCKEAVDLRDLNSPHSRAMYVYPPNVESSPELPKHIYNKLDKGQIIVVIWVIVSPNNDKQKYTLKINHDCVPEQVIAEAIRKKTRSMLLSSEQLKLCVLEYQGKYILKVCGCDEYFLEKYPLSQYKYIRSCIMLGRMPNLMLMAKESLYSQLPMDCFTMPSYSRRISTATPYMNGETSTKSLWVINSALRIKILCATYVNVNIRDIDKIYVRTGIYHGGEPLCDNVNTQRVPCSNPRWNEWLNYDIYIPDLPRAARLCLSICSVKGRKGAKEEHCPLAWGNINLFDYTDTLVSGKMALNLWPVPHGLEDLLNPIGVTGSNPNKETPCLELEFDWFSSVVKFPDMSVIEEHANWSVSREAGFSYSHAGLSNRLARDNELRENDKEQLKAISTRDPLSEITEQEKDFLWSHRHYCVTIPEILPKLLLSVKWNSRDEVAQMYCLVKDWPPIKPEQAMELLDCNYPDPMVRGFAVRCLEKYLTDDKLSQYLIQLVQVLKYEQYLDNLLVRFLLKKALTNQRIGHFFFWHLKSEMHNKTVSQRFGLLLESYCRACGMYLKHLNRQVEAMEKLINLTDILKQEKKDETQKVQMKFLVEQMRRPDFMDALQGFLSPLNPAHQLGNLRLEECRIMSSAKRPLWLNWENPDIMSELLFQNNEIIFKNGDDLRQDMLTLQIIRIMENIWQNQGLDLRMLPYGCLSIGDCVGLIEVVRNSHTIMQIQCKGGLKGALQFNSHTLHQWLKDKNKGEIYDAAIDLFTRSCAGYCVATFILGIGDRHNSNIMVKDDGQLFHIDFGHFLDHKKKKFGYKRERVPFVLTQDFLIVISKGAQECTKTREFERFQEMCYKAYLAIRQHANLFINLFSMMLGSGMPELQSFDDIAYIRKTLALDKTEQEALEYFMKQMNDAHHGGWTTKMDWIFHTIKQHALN
human PI3Kα (p110α/p85α), sequence (P27986 whole entry partner): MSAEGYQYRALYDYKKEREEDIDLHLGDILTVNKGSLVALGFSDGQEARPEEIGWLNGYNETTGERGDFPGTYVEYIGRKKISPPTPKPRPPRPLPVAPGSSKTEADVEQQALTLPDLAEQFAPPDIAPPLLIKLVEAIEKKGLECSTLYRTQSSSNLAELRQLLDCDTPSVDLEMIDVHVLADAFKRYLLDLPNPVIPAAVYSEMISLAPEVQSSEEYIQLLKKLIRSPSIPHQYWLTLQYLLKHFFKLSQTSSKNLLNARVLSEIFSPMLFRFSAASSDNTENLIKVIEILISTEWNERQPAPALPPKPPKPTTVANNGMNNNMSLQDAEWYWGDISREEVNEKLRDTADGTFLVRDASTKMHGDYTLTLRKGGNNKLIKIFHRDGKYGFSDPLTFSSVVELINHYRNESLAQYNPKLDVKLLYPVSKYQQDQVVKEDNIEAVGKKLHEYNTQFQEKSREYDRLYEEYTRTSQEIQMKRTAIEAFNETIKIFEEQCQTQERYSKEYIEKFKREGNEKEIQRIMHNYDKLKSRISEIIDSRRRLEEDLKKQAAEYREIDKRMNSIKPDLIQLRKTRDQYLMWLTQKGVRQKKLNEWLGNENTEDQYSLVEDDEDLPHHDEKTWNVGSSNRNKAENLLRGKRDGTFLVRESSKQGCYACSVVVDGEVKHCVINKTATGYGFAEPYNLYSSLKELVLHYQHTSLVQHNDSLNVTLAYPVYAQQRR

COc1ccc(N(C(=O)OCc2cnc([N+](=O)[O-])n2C)c2cc3c(cn2)n(C)c(=O)n3C2CCOCC2)c(C)c1 [Compound 248, (1-Methyl-2-nitro-1H-imidazol-5-yl)methyl (4-methoxy-2-methylphenyl)(3-methyl-2-oxo-1-(tetrahydro-2H-pyran-4-yl)-2,3-dihydro-1H-imidazo[4,5-c]pyridin-6-yl)carbamate]
radiosensitisation / differential growth inhibition of DNA-PK null HAP1 line (HAP1/PRKDC−/− cells; 3 Gy, HAP1/PRKDC−/−): did not demonstrate any differential growth inhibition | IC50 (HAP1/PRKDC−/− cells; Homo sapiens, HAP1): > 10 µM | D1 (radiation dose for 1% surviving fraction) (UT-SCC-54C cells [1]; 0% O2, compound conc 1 μM): 13.8 Gy | D10 (radiation dose for 10% surviving fraction) (UT-SCC-54C cells [1]; 0% O2, compound conc 1 μM): 8.57 Gy | SER1 (sensitiser enhancement ratio at 1% surviving fraction) (UT-SCC-54C cells [1]; 0% O2, compound conc 1 μM): 1.71 | SER10 (sensitiser enhancement ratio at 10% surviving fraction) (UT-SCC-54C cells [1]; 0% O2, compound conc 1 μM): 1.73 | Plating efficiency drug/no drug (UT-SCC-54C cells [1]; 0% O2, compound conc 1 μM): 1.13 | D1 (radiation dose for 1% surviving fraction) (UT-SCC-54C cells [1]; 20% O2, compound conc 1 μM): 9.34 Gy | D10 (radiation dose for 10% surviving fraction) (UT-SCC-54C cells [1]; 20% O2, compound conc 1 μM): 5.61 Gy | SER1 (sensitiser enhancement ratio at 1% surviving fraction) (UT-SCC-54C cells [1]; 20% O2, compound conc 1 μM): 1.04 | SER10 (sensitiser enhancement ratio at 10% surviving fraction) (UT-SCC-54C cells [1]; 20% O2, compound conc 1 μM): 1.12 | Plating efficiency drug/no drug (UT-SCC-54C cells [1]; 20% O2, compound conc 1 μM): 1.21 | SER (sensitiser enhancement ratio) (UT-SCC-54C cells [1]; UT-SCC-54C, anoxic conditions, clonogenic survival, FIG. 10): 1.82 | radiosensitisation of UT-SCC-54C cells under oxic conditions (UT-SCC-54C cells [1]; oxic, clonogenic survival, FIG. 9): does not | metabolism of prodrug by UT-SCC-54C cells under anoxic conditions (release of 121) (UT-SCC-54C cells [2]; anoxic): selectively metabolised | metabolism of prodrug by UT-SCC-54C cells under oxic conditions (UT-SCC-54C cells [2]; oxic): not under oxic conditions | IC50 (ATR/ATRIP): > 100 µM | IC50 (human DNA-PK; 10 μM ATP, 10 μg/ml DNA, mean of two replicates, Table 12, read-out: Inhibition of kinase activity (as IC50) DNA-PK (converted)): 0.0185 µM and 0.14 µM | IC50 (human DNA-PK; HotSpot assay Reaction Biology Corp., Table 15, read-out: Inhibition of PIKK kinase activity DNA-PK): 0.0185 µM | IC50 (ATM): > 100 µM | reduction in clonogens/gram of tumour, compound with radiation compared to radiation alone ([3]; IP 50 mg/kg 15 min before and 6 h after 13 Gy whole-body irradiation): smaller, but significant (p=0.018) effect | reduction in clonogens/gram of tumour tissue, compound alone ([3]; IP 2 x 50 mg/kg, no radiation, compared to DMSO control): no reduction | radiosensitisation / differential growth inhibition of HAP1 cells (HAP1 cells; 3 Gy cobalt-60 gamma irradiation relative to radiation-only): did not demonstrate any differential growth inhibition | IC50 (HAP1 cells; Homo sapiens, HAP1, read-out: HAP1 wt IC50): > 10 µM | IC50 (UT-SCC-54C cells [4]; Homo sapiens, read-out: IC50): > 10 µM | S50 (UT-SCC-54C cells [4]; compound in combination with 3 Gy of radiation, 50% inhibition of regrowth fraction, UT-SCC-54C, oxic): >10 µM | radiosensitisation / differential growth inhibition of UT-SCC-54C cells (UT-SCC-54C cells [4]; oxic, 0 or 3 Gy, regrowth assay): did not display any differential growth inhibition | IC50 (human mTOR; Inhibition of PIKK kinase activity mTOR/FRAP (nM), HotSpot assay Reaction Biology Corp., Table 15): ≥ 10000 nM | IC50 (human mTOR; Inhibition of kinase activity (as IC50) mTOR (nM), 10 μM ATP, mean of two replicates, Table 12): > 100000 nM | IC50 (human mTOR; read-out: Inhibition of kinase activity (as IC50) mTOR, 10 μM ATP, mean of two replicates, Table 12): > 100000 nM | IC50 (human PI3Kα (p110α/p85α)): 107 µM and > 100 µM
